Experimental data taken from publication PMC8256334, “Simultaneous Determination of a Novel PD-L1 Inhibitor, IMMH-010, and Its Active Metabolite, YPD-29B, in Rat Biological Matrices by Polarity-Switching Liquid Chromatography-Tandem Mass Spectrometry: Application to ADME Studies” (Frontiers in Pharmacology, 2021).
Several values for one entry are separate records, joined by “and”; a condition that tells them apart may be missing. Identical values can stand only once. Like-named read-outs stand apart in the source and are kept apart here.

How the values were obtained:
Format in all cases: in vivo, Sprague-Dawley rats
[1] = PK study in rats after single i.g. administration of IMMH-010 maleate; settings: for AUC(0-inf) / AUC(0-t) / Cmax / MRT last / MRT inf / Tmax / half-life: female, Sprague-Dawley, po; for MRT last: read-out: MRT(0-t); for MRT inf: read-out: MRT(0-∞); for Tmax: median (range); for half-life: rat, plasma
Text: (§1) Female Sprague-Dawley rats (200 ± 20 g, Vital River, Beijing, China) were kept in standard environmental conditions. Rats were fasted overnight with free access to water and randomly assigned to different groups before the experiments. All animal protocols were approved by the Institute Animal Care and Welfare Committee of the Institute of Materia Medica, Chinese Academy of Medical Sciences and Peking Union Medical College.
IMMH-010 maleate was suspended in 0.5% sodium carboxymethyl cellulose. The rats were intragastrically (i.g.) administered IMMH-010 maleate at doses of 10, 30, and 100 mg/kg. Blood samples were withdrawn via the orbital plexus into heparinized tubes with NaF at 5, 15, and 30 min and 1, 2, 4, 6, 8, 12, 24, 36, and 48 h. Plasma was immediately prepared by centrifugation at 5,000 rpm for 10 min. All samples were stored at −20°C prior to analysis. The PK parameters of IMMH-010 and YPD-29B were calculated using the Linear Trapezoidal with Linear Interpolation method by WinNonlin software version 6.3 based on a noncompartmental model (Pharsight Corporation, Mountain View, United States ).

[2] = Excretion study in rats (urine and feces); settings: for excretion in feces, % Of administered dose / excretion in urine, % Of administered dose: i.g. IMMH-010 maleate 10 mg/kg, n = 5
Procedure: as §1
After i. g. administration of IMMH-010 maleate (10 mg/kg), rats were housed in separate metabolite cages to collect their urine and feces: 0–12, 12–24, 24–36, 36–48, and 48–72 h for urine and 0–24, 24–48, and 48–72 h for feces. Fecal samples were dried in air. Urine samples were stored at −20°C prior to analysis.

[3] = Tissue distribution study in rats; settings: for concentration in adrenal gland / concentration in brain / concentration in heart / concentration in kidney / concentration in liver / concentration in lung / concentration in lymph / concentration in plasma / concentration in spleen / concentration in thymus: n = 5; for Kp at 0.25 h / Kp at 0.5 h / Kp at 4 h: female, Sprague-Dawley, rat, oral, i.g. 10 mg/kg IMMH-010 maleate, read-out: T/P (tissue-to-plasma partition)
Procedure: as §1
The tissue distribution study was performed 15 min, 30 min, 4 h and 12 h after i. g. administration of 10 mg/kg IMMH-010 maleate. Blood was collected and centrifuged at 5,000 rpm for 10 min. The heart, liver, brain, spleen, lung, kidney, adrenal gland, thymus, and lymph were harvested immediately. The tissues were washed with normal saline and blotted dry with filter paper. All samples were stored at -20°C before analysis.

[4] = rat plasma, single i.g. IMMH-010 maleate 10 mg/kg, mean ± SD, n = 5
[5] = rat plasma, single i.g. IMMH-010 maleate 30 mg/kg, mean ± SD, n = 5
[6] = rat plasma, single i.g. IMMH-010 maleate 100 mg/kg, mean ± SD, n = 5
[7] = time 0.25 (15 min) after i.g. 10 mg/kg IMMH-010 maleate
[8] = time 0.5 (30 min) after i.g. 10 mg/kg IMMH-010 maleate
[9] = time 4 (4 h) after i.g. 10 mg/kg IMMH-010 maleate

For `O=C(O)[C@H](CO)NCc1cc(Cl)c(OCc2cccc(-c3ccccc3)c2Br)cc1OCc1cccnc1` [YPD-29B], the AUC(0-inf) [1, 4] was 110 ± 46.6 ng·h/mL, the AUC(0-t) [1, 4] was 94.3 ± 46.3 ng·h/mL and the Cmax [1, 4] was 63.7 ± 29.1 ng/mL. For the same compound, the MRT last [1, 4] was 1.5 ± 0.4 h, the MRT inf [1, 4] was 2.27 ± 0.96 h and the Tmax ([1]; rat plasma, single i.g. IMMH-010 maleate 10 mg/kg, n = 5) was 30 min. The AUC(0-inf) [1, 5] was 521 ± 114 ng·h/mL, the AUC(0-t) [1, 5] was 503 ± 110 ng·h/mL and the Cmax [1, 5] was 268 ± 43 ng/mL. For the same compound, the MRT last [1, 5] was 1.55 ± 0.14 h, the MRT inf [1, 5] was 2.06 ± 0.55 h and the Tmax ([1]; rat plasma, single i.g. IMMH-010 maleate 30 mg/kg, n = 5) was 30 min. It also gave an AUC(0-inf) [1, 6] of 1640 ng·h/mL, an AUC(0-t) [1, 6] of 1620 ng·h/mL and a Cmax [1, 6] of 569 ± 72 ng/mL. The MRT last [1, 6] was 2.88 ± 0.89 h, the MRT inf [1, 6] was 3.12 ± 0.87 h and the Tmax ([1]; rat plasma, single i.g. IMMH-010 maleate 100 mg/kg, n = 5) was 60 min. It also gave a half-life ([1]; 10 mg/kg, rat plasma, single i.g. IMMH-010 maleate 10 mg/kg, mean ± SD, n = 5, read-out: t1/2β (converted)) of 94.2 ± 64.8 min, a half-life ([1]; 30 mg/kg, rat plasma, single i.g. IMMH-010 maleate 30 mg/kg, mean ± SD, n = 5, read-out: t1/2β (converted)) of 219 ± 166 min and a half-life ([1]; 100 mg/kg, rat plasma, i.g. IMMH-010 maleate 10, 30 and 100 mg/kg, range over doses, read-out: average plasma elimination half-life (t1/2β)) of 94.2 to 219 min. For the same compound, the half-life ([1]; 100 mg/kg, rat plasma, single i.g. IMMH-010 maleate 100 mg/kg, mean ± SD, n = 5, read-out: t1/2β (converted)) was 186 ± 106 min, the “dose dependence of AUC” value ([1]; rat plasma, dose range 10–100 mg/kg IMMH-010 maleate, oral) was “proportional to the dose” and the “time postdose at which the metabolite could be detected in plasma” value ([1]; rats, after oral administration of IMMH-010 maleate) was 5 min. For the same compound, the “excretion in feces, % Of administered dose” value ([2]; time 24 h) was 14.56 ± 8.45 % Of administered dose, the “excretion in feces, % Of administered dose” value ([2]; time 48 h) was 19.42 ± 6.85 % Of administered dose and the “excretion in feces, % Of administered dose” value ([2]; time 72 h) was 19.65 % Of administered dose and 19.65 ± 6.76 % Of administered dose. The “share of the dose recovered in the urine and feces as this analyte” value ([2]; urine and feces within 72 h, rats, oral IMMH-010 maleate) was 20.82%, the “excretion in urine, % Of administered dose” value ([2]; time 12 h) was 0.52 ± 0.15 % Of administered dose and the “excretion in urine, % Of administered dose” value ([2]; time 24 h) was 0.63 ± 0.15 % Of administered dose. For the same compound, the “excretion in urine, % Of administered dose” value ([2]; time 36 h) was 0.71 ± 0.17 % Of administered dose, the “excretion in urine, % Of administered dose” value ([2]; time 48 h) was 0.85 ± 0.36 % Of administered dose and the “excretion in urine, % Of administered dose” value ([2]; time 72 h) was 1.17 % Of administered dose and 1.17 ± 0.91 % Of administered dose. The “concentration in adrenal gland” value ([3]; adrenal gland, time 0.25 (15 min) after i.g. 10 mg/kg IMMH-010 maleate) was 15.3 ± 10.8 ng/ml or ng/g, the “concentration in adrenal gland” value ([3]; adrenal gland, time 0.5 (30 min) after i.g. 10 mg/kg IMMH-010 maleate) was 39.7 ± 45.3 ng/ml or ng/g and the “concentration in adrenal gland” value ([3]; adrenal gland, time 4 (4 h) after i.g. 10 mg/kg IMMH-010 maleate) was “BLQ”. The concentration in brain [3, 7] was “BLQ”, the concentration in brain [3, 8] was “BLQ” and the concentration in brain [3, 9] was “BLQ”. For the same compound, the Kp at 0.25 h ([3]; adrenal gland) was 0.5, the Kp at 0.5 h ([3]; adrenal gland) was 0.7 and the Kp at 0.25 h ([3]; heart) was 0.5. The Kp at 0.5 h ([3]; heart) was 0.7, the Kp at 0.25 h ([3]; kidney) was 2 and the Kp at 0.5 h ([3]; kidney) was 4.8. The Kp at 4 h ([3]; kidney) was 34.6, the Kp at 0.25 h ([3]; liver) was 43.8 and the Kp at 0.5 h ([3]; liver) was 58.2. The Kp at 4 h ([3]; liver) was 40.1, the Kp at 0.25 h ([3]; lung) was 1.1 and the Kp at 0.5 h ([3]; lung) was 2. The Kp at 4 h ([3]; lung) was 4.4, the Kp at 0.25 h ([3]; lymph) was 1.6 and the Kp at 0.5 h ([3]; lymph) was 6.8. It also gave a Kp at 4 h ([3]; lymph) of 9.1, a Kp at 0.25 h ([3]; spleen) of 0.5 and a Kp at 0.5 h ([3]; spleen) of 0.9. The Kp at 0.5 h ([3]; thymus) was 0.05, the Kp at 4 h ([3]; thymus) was 0.5 and the concentration in heart ([3]; heart, time 0.25 (15 min) after i.g. 10 mg/kg IMMH-010 maleate) was 17.3 ± 11.9 ng/ml or ng/g. For the same compound, the concentration in heart ([3]; heart, time 0.5 (30 min) after i.g. 10 mg/kg IMMH-010 maleate) was 39.6 ± 33.7 ng/ml or ng/g, the concentration in heart ([3]; heart, time 4 (4 h) after i.g. 10 mg/kg IMMH-010 maleate) was “BLQ” and the concentration in kidney ([3]; kidney, time 0.25 (15 min) after i.g. 10 mg/kg IMMH-010 maleate) was 64.2 ± 40.4 ng/ml or ng/g. For the same compound, the concentration in kidney ([3]; kidney, time 0.5 (30 min) after i.g. 10 mg/kg IMMH-010 maleate) was 265 ± 222 ng/ml or ng/g, the concentration in kidney ([3]; kidney, time 4 (4 h) after i.g. 10 mg/kg IMMH-010 maleate) was 168 ± 23 ng/ml or ng/g and the concentration in liver ([3]; liver, time 0.25 (15 min) after i.g. 10 mg/kg IMMH-010 maleate) was 1,403 ± 962 ng/ml or ng/g. The concentration in liver ([3]; liver, time 0.5 (30 min) after i.g. 10 mg/kg IMMH-010 maleate) was 3,239 ± 2,833 ng/ml or ng/g, the concentration in liver ([3]; liver, time 4 (4 h) after i.g. 10 mg/kg IMMH-010 maleate) was 195 ± 56 ng/ml or ng/g and the concentration in lung ([3]; lung, time 0.25 (15 min) after i.g. 10 mg/kg IMMH-010 maleate) was 35.7 ± 22.8 ng/ml or ng/g. The concentration in lung ([3]; lung, time 0.5 (30 min) after i.g. 10 mg/kg IMMH-010 maleate) was 109 ± 104 ng/ml or ng/g, the concentration in lung ([3]; lung, time 4 (4 h) after i.g. 10 mg/kg IMMH-010 maleate) was 21.4 ± 6.8 ng/ml or ng/g and the concentration in lymph ([3]; lymph, time 0.25 (15 min) after i.g. 10 mg/kg IMMH-010 maleate) was 51.5 ± 41.0 ng/ml or ng/g. For the same compound, the concentration in lymph ([3]; lymph, time 0.5 (30 min) after i.g. 10 mg/kg IMMH-010 maleate) was 378 ± 451 ng/ml or ng/g, the concentration in lymph ([3]; lymph, time 4 (4 h) after i.g. 10 mg/kg IMMH-010 maleate) was 44.0 ± 13.9 ng/ml or ng/g and the concentration in plasma [3, 7] was 32.0 ± 25.2 ng/ml or ng/g. For the same compound, the concentration in plasma [3, 8] was 55.7 ± 51.6 ng/ml or ng/g, the concentration in plasma [3, 9] was 4.86 ± 1.39 ng/ml or ng/g and the “concentrations in tissues at 12 h” value ([3]; rat tissues, 12 h after oral 10 mg/kg IMMH-010 maleate) was “below the LLOQ”. The “tissues of main distribution” value ([3]; rats, oral 10 mg/kg IMMH-010 maleate) was “liver, followed by the lymph, kidney, and lung”, the concentration in spleen ([3]; spleen, time 0.25 (15 min) after i.g. 10 mg/kg IMMH-010 maleate) was 15.1 ± 10.8 ng/ml or ng/g and the concentration in spleen ([3]; spleen, time 0.5 (30 min) after i.g. 10 mg/kg IMMH-010 maleate) was 48.4 ± 47.9 ng/ml or ng/g. The concentration in spleen ([3]; spleen, time 4 (4 h) after i.g. 10 mg/kg IMMH-010 maleate) was “BLQ”, the concentration in thymus ([3]; thymus, time 0.25 (15 min) after i.g. 10 mg/kg IMMH-010 maleate) was “BLQ” and the concentration in thymus ([3]; thymus, time 0.5 (30 min) after i.g. 10 mg/kg IMMH-010 maleate) was 2.74 ± 6.12 ng/ml or ng/g. The concentration in thymus ([3]; thymus, time 4 (4 h) after i.g. 10 mg/kg IMMH-010 maleate) was 2.23 ± 4.99 ng/ml or ng/g.
